# Patent US20180311342A1, “IMMUNOSTIMULATING AGENT” (AJINOMOTO CO., INC., priority 2017, published 2018)
# System: anti-OVA-specific IgG1 and IgG2a subclass antibody production
# Assay: Evaluation test of adjuvant activity (overall conclusion from anti-OVA IgG1 and IgG2a production)
# Assay type: in vivo, BALB/c mice
# Conditions: compound 0.256 μmol in 5% αCD-added saline with OVA 5 μg, dorsal-subcutaneous
# Method in brief: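 Female BALB/c mice (8 weeks, N=6) immunized dorsal-subcutaneously with OVA 5 μg alone or plus 0.256 μmol compound in 5% α-cyclodextrin saline (Addavax™ as positive control), boosted at 2 weeks. Serum taken 2 weeks after boost; anti-OVA IgG1 and IgG2a quantified by OVA-coated ELISA against standard curves (OD 450 nm).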
# [1] = conclusion from IgG1/IgG2a after primary immunization
# [2] = conclusion from IgG1/IgG2a after secondary immunization
SMILES,adjuvant activity [1],adjuvant activity [2]
"CCCCCCCCCCCCCCCCOC(=O)N[C@@H](CC(C)C)C(=O)NCCCCCCCC [SZ203, hexadecyl N-[(1S)-3-methyl-1-(octylcarbamoyl)butyl]carbamate]",have an adjuvant activity,have an adjuvant activity
"CCCCCCCCCCCCCCCCCC(=O)N[C@H](CCCNC(=N)N)C(=O)NCCCCCCCCCCCC.Cl [SZ191, N-[(1R)-1-(dodecylcarbamoyl)-4-guanidino-butyl]octadecanamide hydrochloride]",have an adjuvant activity,have an adjuvant activity
"CCCCCCCCCCCCCCCCCCCCCC(=O)N[C@@H](CCCN)C(=O)NCCCCCCCCCCCC.Cl [SZ165, N-[(1S)-4-amino-1-(dodecylcarbamoyl)butyl]docosanamide hydrochloride]",–,have an adjuvant activity
